Measured values from PubChem BioAssay AID2060906 (Molecular Pharmacology Branch, DTP, NCI, 2025).

Tested on: 485176-168-R4-J1-PDC complex spheroid growth
Assay: Anticancer human tumor 485176-168-R4-J1-PDC patient-derived pancreatic adenocarcinoma cell line growth inhibition [RAS]
Conditions: for IC50: curve of first compound; for viability, T/C: stronger effect = lower value; active = viability on the fitted dose curve at most 10% of control; inactive = the rest
Procedure, shortened: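 Agents were tested in combination matrices in half-log decrements from a top concentration at or near clinical Cmax (10 microM if undetermined). Targets were multi-cell spheroids of tumour lines plus HUVEC and MSC stromal cells.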

[1] = second compound 0.000949 µM, first compound 0.0316 µM
[2] = second compound 0.000949 µM, first compound 0.1 µM
[3] = second compound 0.000949 µM, first compound 0.316 µM
[4] = second compound 0.000949 µM, first compound 1 µM
[5] = second compound 0.000949 µM, first compound 3.16 µM
[6] = second compound 0.000949 µM, first compound 10 µM
[7] = second compound 0.003 µM, first compound 0.0316 µM
[8] = second compound 0.003 µM, first compound 0.1 µM
[9] = second compound 0.003 µM, first compound 0.316 µM
[10] = second compound 0.003 µM, first compound 1 µM
[11] = second compound 0.003 µM, first compound 3.16 µM
[12] = second compound 0.003 µM, first compound 10 µM
[13] = second compound 0.00949 µM, first compound 0.0316 µM
[14] = second compound 0.00949 µM, first compound 0.1 µM
[15] = second compound 0.00949 µM, first compound 0.316 µM
[16] = second compound 0.00949 µM, first compound 1 µM
[17] = second compound 0.00949 µM, first compound 3.16 µM
[18] = second compound 0.00949 µM, first compound 10 µM
[19] = second compound 0.03 µM, first compound 0.0316 µM
[20] = second compound 0.03 µM, first compound 0.1 µM
[21] = second compound 0.03 µM, first compound 0.316 µM
[22] = second compound 0.03 µM, first compound 1 µM
[23] = second compound 0.03 µM, first compound 3.16 µM
[24] = second compound 0.03 µM, first compound 10 µM
[25] = second compound 0.0949 µM, first compound 0.0316 µM
[26] = second compound 0.0949 µM, first compound 0.1 µM
[27] = second compound 0.0949 µM, first compound 0.316 µM
[28] = second compound 0.0949 µM, first compound 1 µM
[29] = second compound 0.0949 µM, first compound 3.16 µM
[30] = second compound 0.0949 µM, first compound 10 µM
[31] = second compound 0.3 µM, first compound 0.0316 µM
[32] = second compound 0.3 µM, first compound 0.1 µM
[33] = second compound 0.3 µM, first compound 0.316 µM
[34] = second compound 0.3 µM, first compound 1 µM
[35] = second compound 0.3 µM, first compound 3.16 µM
[36] = second compound 0.3 µM, first compound 10 µM
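Also: spheroids exposed to compounds for seven days before readout.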
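For viability, T/C in this document: luminescence viability expressed relative to DMSO vehicle wells set as 100%.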

C[C@@H](NC(=O)c1ncnc(N)c1Cl)c1ncc(C(=O)Nc2cc(C(F)(F)F)c(Cl)cn2)s1 + CCn1c(-c2cccnc2C(C)OC)c2c3cc(ccc31)N1CCOC(CC(NC(=O)C(C(C)C)N(C)C(=O)C3(F)CCN(C(=O)C#CC(C)(C)N(C)C)CC3)C(=O)N3CCCC(N3)C(=O)OCC(C)(C)C2)C1
9.48 µM: IC50 (second compound 0.3 µM)
inactive: viability, T/C [1] 101% | viability, T/C [2] 91.7% | viability, T/C [3] 100% | viability, T/C [4] 85.9% | viability, T/C [5] 72.2% | viability, T/C [6] 54.5% | viability, T/C [7] 88.6% | viability, T/C [8] 89.4% | viability, T/C [9] 86.2% | viability, T/C [10] 70.6% | viability, T/C [11] 71% | viability, T/C [12] 59.6% | viability, T/C [13] 87.1% | viability, T/C [14] 98.5% | viability, T/C [15] 83.7% | viability, T/C [16] 82.4% | viability, T/C [17] 91% | viability, T/C [18] 53% | viability, T/C [19] 81.3% | viability, T/C [20] 85.6% | viability, T/C [21] 102% | viability, T/C [22] 78.3% | viability, T/C [23] 75.6% | viability, T/C [24] 79.5% | viability, T/C [25] 89.9% | viability, T/C [26] 90.3% | viability, T/C [27] 78.5% | viability, T/C [28] 70.7% | viability, T/C [29] 74% | viability, T/C [30] 58.3% | viability, T/C [31] 75.2% | viability, T/C [32] 76.4% | viability, T/C [33] 65.7% | viability, T/C [34] 72.4% | viability, T/C [35] 59% | viability, T/C [36] 49.7%
> 10 µM: IC50 (second compound 0.000949 µM) | IC50 (second compound 0.003 µM) | IC50 (second compound 0.00949 µM) | IC50 (second compound 0.03 µM) | IC50 (second compound 0.0949 µM)

Cc1nc(N2CCC3(CC2)COC(C)C3N)c(CO)nc1Sc1ccnc(N)c1Cl (centres undefined) + CCn1c(-c2cccnc2C(C)OC)c2c3cc(ccc31)N1CCOC(CC(NC(=O)C(C(C)C)N(C)C(=O)C3(F)CCN(C(=O)C#CC(C)(C)N(C)C)CC3)C(=O)N3CCCC(N3)C(=O)OCC(C)(C)C2)C1
> 10 µM: IC50 (second compound 0.000949 µM) | IC50 (second compound 0.003 µM) | IC50 (second compound 0.00949 µM) | IC50 (second compound 0.03 µM) | IC50 (second compound 0.0949 µM) | IC50 (second compound 0.3 µM)
inactive: viability, T/C [1] 96.6% | viability, T/C [2] 87.4% | viability, T/C [3] 84% | viability, T/C [4] 85.1% | viability, T/C [5] 89.1% | viability, T/C [6] 79.4% | viability, T/C [7] 93.1% | viability, T/C [8] 103% | viability, T/C [9] 81% | viability, T/C [10] 68.9% | viability, T/C [11] 82% | viability, T/C [12] 71% | viability, T/C [13] 110% | viability, T/C [14] 92.9% | viability, T/C [15] 94.7% | viability, T/C [16] 77.6% | viability, T/C [17] 87.6% | viability, T/C [18] 64.3% | viability, T/C [19] 93.3% | viability, T/C [20] 91.2% | viability, T/C [21] 92.2% | viability, T/C [22] 69.2% | viability, T/C [23] 74.8% | viability, T/C [24] 73.9% | viability, T/C [25] 97.3% | viability, T/C [26] 85.4% | viability, T/C [27] 72.3% | viability, T/C [28] 87.3% | viability, T/C [29] 70.8% | viability, T/C [30] 85.5% | viability, T/C [31] 71.7% | viability, T/C [32] 65.4% | viability, T/C [33] 60.2% | viability, T/C [34] 66% | viability, T/C [35] 70.8% | viability, T/C [36] 66.2%
